According to patent US20240174633A1, “CRYSTALLINE FORMS OF (4S)-24-CHLORO-4-ETHYL-73-FLUORO-35-METHOXY-32,5-DIOXO-14-(TRIFLUORO-METHYL)-32H-6-AZA-3(4,1)-PYRIDINA-1(1)-[1,2,3]TRIAZOLA-2(1,2),7(1)-DIBENZENAHEPTAPHANE-74-CARBOXAMIDE” (Bayer Aktiengesellschaft, priority 2021, published 2024):

Assays:
human factor XIa = human factor XIa (Homo sapiens (Human), UniProt P03951); test: Measurement of FXIa inhibition (fluorogenic peptide substrate); type: biochemical; conditions: substrate Boc-Glu(OBzl)-Ala-Arg-AMC
Sequence of human factor XIa (P03951 388-625): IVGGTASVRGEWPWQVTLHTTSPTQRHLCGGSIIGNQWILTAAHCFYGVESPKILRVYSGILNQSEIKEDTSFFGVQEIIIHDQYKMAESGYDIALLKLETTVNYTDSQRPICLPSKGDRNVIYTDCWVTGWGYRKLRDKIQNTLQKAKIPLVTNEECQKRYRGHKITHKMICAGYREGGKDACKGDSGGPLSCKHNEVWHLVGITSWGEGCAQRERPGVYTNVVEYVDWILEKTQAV
Sequence of human factor XIa (P03951 19-387 partner): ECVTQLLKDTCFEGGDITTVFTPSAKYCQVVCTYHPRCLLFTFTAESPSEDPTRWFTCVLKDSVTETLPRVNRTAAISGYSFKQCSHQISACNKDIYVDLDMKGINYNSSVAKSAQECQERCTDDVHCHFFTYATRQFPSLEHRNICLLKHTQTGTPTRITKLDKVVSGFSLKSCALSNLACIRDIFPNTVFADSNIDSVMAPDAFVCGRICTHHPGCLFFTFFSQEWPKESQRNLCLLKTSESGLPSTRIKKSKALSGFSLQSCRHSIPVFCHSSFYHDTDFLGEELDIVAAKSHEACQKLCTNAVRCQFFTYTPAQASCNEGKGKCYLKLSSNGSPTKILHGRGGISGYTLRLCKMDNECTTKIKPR
Method: (§1) The factor XIa inhibition of the substances according to the invention is determined using a biochemical test system which utilizes the reaction of a peptidic factor XIa substrate to determine the enzymatic activity of human factor XIa. Here, factor XIa cleaves from the peptidic factor XIa substrate the C-terminal aminomethylcoumarin (AMC), the fluorescence of which is measured. The determinations are carried out in microtitre plates.
(§2) Test substances are dissolved in dimethyl sulfoxide and serially diluted in dimethyl sulfoxide (3000 μM to 0.0078 μM; resulting final concentrations in the test: 50 µM to 0.00013 μM). In each case 1 μl of the diluted substance solutions is placed into the wells of white microtitre plates from Greiner (384 wells). […] After 15 min of incubation, the enzyme reaction is started by addition of 20 μl of the factor XIa substrate Boc-Glu(OBzl)-Ala-Arg-AMC dissolved in assay buffer (10 μM in assay buffer) from Bachem, the mixture is incubated at room temperature (22° C.) for 30 min and fluorescence is then measured (excitation: 360 nm, emission: 460 nm). The measured emissions of the test batches with test substance are compared to those of control batches without test substance (only dimethyl sulfoxide instead of test substance in dimethyl sulfoxide), and IC50 values are calculated from the concentration/activity relationships. […]

human plasma kallikrein = human plasma kallikrein (Homo sapiens (Human), UniProt P03952); test: Determination of the plasma kallikrein activity (fluorogenic peptide substrate); type: biochemical; conditions: substrate H-Pro-Phe-Arg-AMC
Sequence of human plasma kallikrein (P03952 391-638): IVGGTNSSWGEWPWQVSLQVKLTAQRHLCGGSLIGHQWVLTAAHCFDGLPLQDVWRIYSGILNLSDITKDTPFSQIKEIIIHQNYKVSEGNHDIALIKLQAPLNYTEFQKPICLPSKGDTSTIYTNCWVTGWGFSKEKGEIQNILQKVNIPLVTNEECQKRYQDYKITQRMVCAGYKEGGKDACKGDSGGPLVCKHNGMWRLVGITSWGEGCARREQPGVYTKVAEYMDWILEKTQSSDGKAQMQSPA
Sequence of human plasma kallikrein (P03952 20-390 partner): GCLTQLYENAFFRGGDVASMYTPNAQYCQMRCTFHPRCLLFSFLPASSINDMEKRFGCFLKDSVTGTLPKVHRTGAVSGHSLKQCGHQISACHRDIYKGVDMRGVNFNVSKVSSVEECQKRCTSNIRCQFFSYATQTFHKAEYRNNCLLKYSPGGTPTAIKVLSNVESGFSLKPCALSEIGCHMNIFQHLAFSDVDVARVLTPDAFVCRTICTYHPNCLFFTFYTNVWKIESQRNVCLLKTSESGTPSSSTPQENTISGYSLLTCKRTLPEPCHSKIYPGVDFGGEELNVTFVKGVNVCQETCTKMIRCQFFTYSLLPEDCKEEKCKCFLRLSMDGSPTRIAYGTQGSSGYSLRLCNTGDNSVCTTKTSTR
Method: as §1, with “To determine the plasma kallikrein” for “The factor XIa”, “invention,” for “invention is determined using”, “system is used” for “system”, “plasma kallikrein” for “factor XIa”, “plasma kallikrein.” for “factor XIa.”
as §2, with “[…];” for “μM;”, “μM” for “µM”, “the” for “the factor XIa”, “H-Pro-Phe-Arg-AMC” for “Boc-Glu(OBzl)-Ala-Arg-AMC”

IC50 (human factor XIa): 1.2 nM
IC50 (human plasma kallikrein): 3.4 nM
SMILES: COc1cn([C@@H](C)C(=O)Nc2ccc(C(N)=O)c(F)c2)c(=O)cc1-c1c(-n2cc(C(F)(F)F)nn2)ccc(Cl)c1F [Example 2.4, 4-({(2S)-2-[4-{3-Chloro-2-fluoro-6-[4-(trifluoromethyl)-1H-1,2,3-triazol-1-yl]phenyl}-5-methoxy-2-oxopyridin-1(2H)-yl]propanoyl}amino)-2-fluorobenzamide]
